Laboratory results: patent publication US20110178119A1, “Bridged N-Bicyclic Sulfonamido Inhibitors of Gamma Secretase” (ELAN PHARMACEUTICALS, INC., priority 2005, published 2011)

molecular target: T1, gamma-secretase (Homo sapiens, UniProt P49768); test: Gamma-secretase APP enzyme assay (cleavage of MBP-C125swe substrate, sandwich ELISA); type: biochemical; settings: partially purified extract of IMR-32 cell membranes as enzyme, 2 h at 37° C, ELISA detection of cleavage product, read-out: γAPP
T1 construct: a partially purified extract of IMR-32 cell membranes as the gamma-secretase enzyme preparation; endogenous in cells; host or cells: IMR-32 cell membranes, partially purified extract
From the text: The gamma-secretase APP enzyme assay was designed to measure the specific proteolytic cleavage of an APP substrate (MBP-C125 Swe fusion protein) at the […] site. The assay used a partially purified extract of IMR-32 cell membranes as the gamma-secretase enzyme preparation and a recombinant fusion protein containing the C-terminal 125 amino acids of the Swedish variant of the APP (MBP-C125swe) as the substrate. This assay involved two steps beginning with the enzymatic reaction generating a cleavage product that was captured with an immobilized antibody specific for the neo-epitope […] site. The captured cleavage product was then detected in a sandwich ELISA assay with a biotinylated reporter antibody that is specific to Aβ (17-28). Streptavidin-linked alkaline phosphatase was then added that would generate a fluorescent signal proportional to the amount of cleavage product. This assay was used to discover small molecule inhibitors of gamma-secretase. Briefly, a 149 mg/ml solution of […] detergent was made with water at 42° C. and then rotated for 30 minutes at the same temperature. […] Louis, Mo.) to a concentration of 8 mg/ml. This solution containing BigCHAPS and lipid at 8 mg/ml is then diluted to 0.53 mg/ml lipid with a pre-warmed solution of Hepes and sodium chloride. This final solution containing Hepes buffer, sodium chloride, BigCHAPS detergent and lipid is used to create working solutions of both gamma-secretase (25 Units) and the MBP-C125 substrate (0.05 mg/ml). Gamma-secretase was then added to a 96-well micro-titre plate and then incubated with various concentrations of inhibitor for 30 minutes at 37° C. MBP-C125 substrate was then added to initiate the reaction that would run for two hours at 37° C. The reaction was quenched with the addition of SDS to a final concentration of 0.1% and then 100 μl of the reaction mixture was transferred to a capture ELISA plate and incubated overnight at 4° C. Detection of the cleavage product was performed using a standard sandwich ELISA assay and quantified using a six point standard curve.

`O=S(=O)(c1ccc(Br)cc1)N1C2CCCC1CC2` [8-(4-bromophenylsulfonyl)-8-azabicyclo[3.2.1]octane] and `O=S(=O)(c1ccc(Br)cc1)N1C2CCCC1CCC2` [9-(4-bromophenylsulfonyl)-9-azabicyclo[3.3.1]nonane] cannot be ordered by IC50: 2 to 5 µM for the first, 1 to 2.5 µM for the second.

`O=S(=O)(c1ccc(Cl)cc1)N1C2CCCC1CC2` [8-(4-chlorophenylsulfonyl)-8-azabicyclo[3.2.1]octane] and `O=S(=O)(c1ccc(Cl)cc1)N1C2CCCC1CCC2` [9-(4-chlorophenylsulfonyl)-9-azabicyclo[3.3.1]nonane] cannot be ordered by IC50: 2 to 5 µM for the first, 1 to 2.5 µM for the second.

`O=S(=O)(c1ccc(C(F)(F)F)cc1)N1C2CCCC1CCC2` [9-(4-(trifluoromethyl)phenylsulfonyl)-9-azabicyclo[3.3.1]nonane] and `O=S(=O)(c1ccc(Br)c(F)c1)N1C2CCCC1CCC2` [9-(4-bromo-3-fluorophenylsulfonyl)-9-azabicyclo[3.3.1]nonane] fall in the same range of IC50: 2 to 5 µM for the first, 2 to 5 µM for the second.

First: O=C1NCC2CCCC1N2S(=O)(=O)c1ccc(Cl)cc1 (stereo not shown) [9-(4-chlorophenylsulfonyl)-3,9-diazabicyclo[3.3.1]nonan-2-one]
Second: O=C1NC(=O)C2CCCC1N2S(=O)(=O)c1ccc(Cl)cc1 [9-[(4-chlorophenyl)sulfonyl]-3,9-diazabicyclo[3.3.1]nonane-2,4-dione]
The IC50 of the first is higher: 2 to 5 µM for the first, under 1 µM for the second. The second is the more potent here.

`C=C1CC2CCCC(C1)N2S(=O)(=O)c1ccc(Cl)cc1` [9-(4-chlorophenylsulfonyl)-3-methylene-9-azabicyclo[3.3.1]nonane] and `O=C1CC2CCCC(C1)N2S(=O)(=O)c1ccc(Cl)cc1` [9-(4-chlorophenylsulfonyl)-9-azabicyclo[3.3.1]nonan-3-one] cannot be ordered by IC50: under 1 µM for the first, under 1 µM for the second.

First: O=S(=O)(c1ccc(Cl)cc1)N1C2CCCC1COC2 [9-(4-chlorophenylsulfonyl)-3-oxa-9-azabicyclo[3.3.1]nonane]
Second: O=S(=O)(c1ccc(Cl)cc1)N1C2CCCC1CSC2 [9-(4-chlorophenylsulfonyl)-3-thia-9-azabicyclo[3.3.1]nonane]
The IC50 of the first is higher: 2 to 5 µM for the first, under 1 µM for the second. The second is the more potent here.

`O=S(=O)(c1ccc(Cl)cc1)N1C2CCCC1CN(c1ccccc1)C2` [9-(4-chlorophenylsulfonyl)-3-phenyl-3,9-diazabicyclo[3.3.1]nonane] and `O=S(=O)(c1ccc(Cl)cc1)N1C2CCCC1CC(O)C2` (stereo not shown) [9-(4-chlorophenylsulfonyl)-9-azabicyclo[3.3.1]nonan-3-ol] cannot be ordered by IC50: 1 to 2.5 µM for the first, 2 to 5 µM for the second.

`O=S(=O)(c1ccc(Cl)cc1)N1C2CCCC1CC(=NO)C2` [9-(4-chlorophenylsulfonyl)-9-azabicyclo[3.3.1]nonan-3-one oxime] and `CS(=O)(=O)OC1CC2CCCC(C1)N2S(=O)(=O)c1ccc(Cl)cc1` (stereo not shown) [Methanesulfonic acid 9-(4-chloro-benzenesulfonyl)-9-aza-bicyclo[3.3.1]non-3-yl ester] cannot be ordered by IC50: 2 to 5 µM for the first, 1 to 2.5 µM for the second.

`O=S(=O)(c1ccc(Br)s1)N1C2CCCC1CCC2` [9-(5-bromothiophen-2-ylsulfonyl)-9-azabicyclo[3.3.1]nonane] and `O=S(=O)(c1ccc(Cl)s1)N1C2CCCC1CCC2` [9-(5-chlorothiophen-2-ylsulfonyl)-9-azabicyclo[3.3.1]nonane] fall in the same range of IC50: 2 to 5 µM for the first, 2 to 5 µM for the second.

`CN(C(=O)OC(C)(C)C)C1CC2CCCC(C1)N2S(=O)(=O)c1ccc(Cl)cc1` (stereo not shown) [[9-(4-Chloro-benzenesulfonyl)-9-aza-bicyclo[3.3.1]non-3-yl]-methyl-carbamic acid tert-butyl ester] was tested, and the IC50 was under 1 µM.
